Measured values reported in patent publication US20100035926A1, “PYRAZOLE DERIVATIVES AS NON-STEROIDAL GLUCOCORTICOID RECEPTOR LIGANDS” (priority 2006, published 2010).
Like-named read-outs stand apart in the source and are kept apart here.

Legend:
glucocorticoid receptor = molecular target: T1, glucocorticoid receptor (Homo sapiens, UniProt P04150); test: Glucocorticoid Receptor Binding Assay (fluorescence polarisation, displacement of Alexa 555 labelled dexamethasone derivative); conditions: at least once in this assay; read-out: glucocorticoid binding pIC50 (converted)
T1 construct: a partially purified full length glucocorticoid receptor
T1 sequence (P04150 1-777): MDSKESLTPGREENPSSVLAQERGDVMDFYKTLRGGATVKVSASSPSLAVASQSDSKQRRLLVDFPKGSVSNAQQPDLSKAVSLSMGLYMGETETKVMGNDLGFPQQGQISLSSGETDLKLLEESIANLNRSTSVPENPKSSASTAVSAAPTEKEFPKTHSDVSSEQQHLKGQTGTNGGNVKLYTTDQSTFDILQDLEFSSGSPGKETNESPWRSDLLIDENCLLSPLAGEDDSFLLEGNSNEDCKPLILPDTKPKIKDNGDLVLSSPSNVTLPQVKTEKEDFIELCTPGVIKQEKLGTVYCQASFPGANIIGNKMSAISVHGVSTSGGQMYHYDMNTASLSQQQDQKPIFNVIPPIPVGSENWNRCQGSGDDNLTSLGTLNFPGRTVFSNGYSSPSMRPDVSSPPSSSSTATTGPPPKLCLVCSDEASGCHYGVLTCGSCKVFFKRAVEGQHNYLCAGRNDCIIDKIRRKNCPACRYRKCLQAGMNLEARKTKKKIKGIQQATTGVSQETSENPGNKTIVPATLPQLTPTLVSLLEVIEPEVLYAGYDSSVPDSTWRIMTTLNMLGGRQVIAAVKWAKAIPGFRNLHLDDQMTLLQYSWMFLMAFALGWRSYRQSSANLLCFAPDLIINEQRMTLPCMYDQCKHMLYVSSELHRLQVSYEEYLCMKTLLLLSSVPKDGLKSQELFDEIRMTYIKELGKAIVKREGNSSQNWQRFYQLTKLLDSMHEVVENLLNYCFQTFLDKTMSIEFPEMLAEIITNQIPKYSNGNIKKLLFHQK
Procedure, shortened: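 Partially purified full-length GR incubated with test compound and fluorescent dexamethasone plus GR-stabilising buffer components, 2 hr at room temperature in the dark. Binding scored as displacement of tracer, read as decrease in fluorescence polarisation.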

GR [1] = molecular target: T2, GR (Homo sapiens, UniProt P04150); test: GR Functional Assay - NFκB Assay (A549 SPAP cells, TNFα stimulated); assay type: cell-based; conditions: for Emax: agonists, read-out: average maximum asymptote in the NFkB assay
T2 construct: endogenous in cells; host or cells: A549 (human lung carcinoma, ECACC No. 86012804), stably transfected with reporter plasmids only
T2 sequence (P04150 1-777): T1 sequence (P04150 1-777)
Procedure, shortened: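 Stably transfected A549 SPAP cells at 0.16×10^6/ml in DMEM with 10% FCS were added to compound and stimulated with TNFα to drive NFκB-dependent SPAP expression. After 1 hr equilibration at room temperature, SPAP was read colorimetrically with pNPP in diethanolamine buffer, pH 9.8.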

GR [2] = molecular target: T2, GR; test: GR Agonist Assay - MMTV Assay (A549 MMTV cells, renilla luciferase reporter); assay type: cell-based; conditions: 6 h, agonists, read-out: average maximum asymptote in the MMTV agonist assay
Procedure, shortened: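 Stably transfected A549 MMTV cells carry a GR-driven luciferase reporter. Cells at 0.1×10^6/ml in DMEM with 10% FCS and 25 mM HEPES were added to wells containing compound. After detection reagent, plates were held about 15 mins at room temperature and luminescence was read.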

[3] = Assay for Brain Penetrance; assay type: in vivo; conditions: brain and plasma, rat, single intravenous dose 1 mg/kg, read-out: brain to plasma ratio
Protocol: Each rat received a single intravenous dose at a level of 1 mg/kg. The dose was formulated in 10% DMSO/50% PEG200/40% sterile water. Terminal blood samples were taken at 5 or 15 mins after dosing, by cardiac puncture following anaesthesia with isofluorane. The brains were removed at the same time point.
The compounds were extracted from 20 μL plasma by protein precipitation using 120 μL acetonitrile containing an analogue compound as an internal standard. The filtered extracts were collected into a 96 well plate and were diluted with an equal volume of 10% acetonitrile containing 0.1% formic acid in water (v/v). The plate was then mixed on a plate shaker for at least 5 mins before analysis by LC-MS/MS against a calibration line prepared in control plasma.
Each brain was weighed, then homogenised in 3 ml acetonitrile:water (10:90v/v). The compounds were extracted from 200 μL of the resulting homogenate by protein precipitation using 600 μL acetonitrile containing an analogue compound as an internal standard. The extracts were centrifuged and 150 μl of each was filtered and transferred to a 96 well plate. The aliquot was diluted with 10% acetonitrile containing 0.1% formic acid in water (v/v). The plate was mixed on a plate shaker for at least 5 mins before analysis by LC-MS/MS against a calibration line prepared in control brain homogenate.

Progesterone Receptor = molecular target: T3, Progesterone Receptor (Homo sapiens, UniProt P06401); test: Assay for Progesterone Receptor Agonist Activity (CV-1 cells, PRb-BacMam, MMTV-BacMam); assay type: cell-based; conditions: at least once in this assay, read-out: progesterone receptor agonist pEC50 (converted)
T3 construct: expressed in transfected cells; host or cells: CV-1 cells transduced with PRb-BacMam and MMTV-BacMam
T3 sequence (P06401 1-933): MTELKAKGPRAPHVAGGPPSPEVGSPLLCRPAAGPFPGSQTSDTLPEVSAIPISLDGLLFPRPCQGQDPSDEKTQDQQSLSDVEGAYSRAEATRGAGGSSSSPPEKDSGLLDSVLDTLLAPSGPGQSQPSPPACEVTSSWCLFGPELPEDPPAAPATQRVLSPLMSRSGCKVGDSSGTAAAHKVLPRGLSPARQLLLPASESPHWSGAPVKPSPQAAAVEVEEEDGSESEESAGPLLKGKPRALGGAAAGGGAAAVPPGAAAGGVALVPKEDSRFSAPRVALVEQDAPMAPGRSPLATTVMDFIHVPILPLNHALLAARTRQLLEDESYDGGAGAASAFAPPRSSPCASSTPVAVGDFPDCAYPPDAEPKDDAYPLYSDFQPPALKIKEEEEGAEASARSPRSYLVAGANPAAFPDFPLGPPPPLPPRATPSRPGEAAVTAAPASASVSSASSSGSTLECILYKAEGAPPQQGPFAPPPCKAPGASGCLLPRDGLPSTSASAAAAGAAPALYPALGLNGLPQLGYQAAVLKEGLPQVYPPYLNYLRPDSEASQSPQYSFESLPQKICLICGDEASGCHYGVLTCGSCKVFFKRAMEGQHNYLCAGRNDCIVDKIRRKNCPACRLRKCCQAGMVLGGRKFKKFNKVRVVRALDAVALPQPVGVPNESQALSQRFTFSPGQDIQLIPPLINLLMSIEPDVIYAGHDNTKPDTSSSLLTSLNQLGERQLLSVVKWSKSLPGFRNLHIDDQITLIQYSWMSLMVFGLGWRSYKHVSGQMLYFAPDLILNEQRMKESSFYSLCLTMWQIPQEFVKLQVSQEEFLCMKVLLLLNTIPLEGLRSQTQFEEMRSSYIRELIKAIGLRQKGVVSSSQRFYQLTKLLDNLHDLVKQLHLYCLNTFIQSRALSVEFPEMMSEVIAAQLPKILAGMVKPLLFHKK
Protocol: A T225 flask of CV-1 cells at a density of 80% confluency was washed with PBS, detached from the flask using 0.25% trypsin and counted using a Sysmex KX-21N. Cells were diluted in DMEM containing 10% Hyclone, 2 mM […] and 1% Pen/Strep at 140 cells/μl and transduced with 10% PRb-BacMam and 10% MMTV-BacMam. […] of suspension cells were dispensed to each well of white Nunc 384-well plates, containing compounds at the required concentration. After 24 hr 10 μl of Steadylite were added to each well of the plates. Plates were incubated in the dark for 10 min before reading them on a Viewlux reader. Dose response curves were constructed from which pEC50 values were estimated.

[4] = at least once in the NFkB assay, A549 SPAP cells, read-out: pIC50 in the NFkB assay (converted)
[5] = at least once, examples listed as agonists in NFkB and MMTV assays, read-out: potency pIC50 in the NFKB assay (converted)

SMILES	IC50 (glucocorticoid receptor)	Emax (GR [1]; A549 SPAP cells)	IC50 (GR [1]; [4])	IC50 (GR [1]; [5])	Emax (GR [2])	Kp at 5 min [3]	EC50 (Progesterone Receptor)
CCN(CC(O)(CNC(=O)c1cnn(-c2ccc(F)c(F)c2)c1N)C(F)(F)F)C(=O)c1ccccc1 (racemic) [Example 24 (racemic), 5-amino-1-(3,4-difluorophenyl)-N-(2-{[ethyl(phenylcarbonyl)amino]methyl}-3,3,3-trifluoro-2-hydroxypropyl)-1H-pyrazole-4-carboxamide]	< 1000 nM	≥ 40%	< 1000 nM	< 316 nM	≥ 40%	≥ 0.1	–
CCN(CC(O)(CNC(=O)c1cnn(-c2ccc(F)cc2)c1N)C(F)(F)F)C(=O)c1ncccc1Cl (single isomer, unassigned) [Example 3 Enantiomer 1, N-[2-[({[5-Amino-1-(4-fluorophenyl)-1H-pyrazol-4-yl]carbonyl]amino)methyl]-3,3,3-trifluoro-2-hydroxypropyl}-3-chloro-N-ethyl-2-Pyridinecarboxamide]	–	–	–	–	–	≥ 0.1	> 1000 nM
CN(CC(O)(CNC(=O)c1cnn(-c2ccc(F)cc2)c1N)C(F)(F)F)C(=O)c1ccccc1Cl (single isomer, unassigned) [Example 7 Enantiomer 1, 5-amino-N-(2-{[[(2-chlorophenyl)car-bonyl](methyl)amino]methyl}-3,3,3-trifluoro-2-hydroxypropyl)-1-(4-fluorophenyl)-1H-pyrazole-4-carboxamide]	< 1000 nM	≥ 40%	< 1000 nM	< 316 nM	≥ 40%	–	> 1000 nM
CCN(CC(O)(CNC(=O)c1cnn(-c2ccc(F)cc2)c1N)C(F)(F)F)C(=O)c1cccc2cccnc12 (single isomer, unassigned) [Example 8 Enantiomer 1, N-{2-[({[5-amino-1-(4-fluorophenyl)-1H-pyrazol-4-yl]carbonyl}amino)methyl]-3,3,3-trifluoro-2-hydroxypropyl}-N-ethyl-8-quinolinecarboxamide]	< 1000 nM	≥ 40%	< 1000 nM	< 316 nM	≥ 40%	–	> 1000 nM
CCN(CC(O)(CNC(=O)c1cnn(-c2ccc(F)cc2)c1N)C(F)(F)F)C(=O)c1ccccc1C(F)(F)F (single isomer, unassigned) [Example 9 Enantiomer 1, 5-amino-N-{2-[(ethyl{[2-(trifluoromethyl)phenyl]carbonyl}amino)methyl]-3,3,3-trifluoro-2-hydroxypropyl}-1-(4-fluorophenyl)-1H-pyrazole-4-carboxamide]	< 1000 nM	≥ 40%	< 1000 nM	< 316 nM	≥ 40%	–	> 1000 nM
CCN(CC(O)(CNC(=O)c1cnn(-c2ccccc2)c1N)C(F)(F)F)C(=O)c1ccccc1F (single isomer, unassigned) [Example 45 Enantiomer 1, 5-amino-N-[2-({ethyl[(2-fluorophenyl)car-bonyl]amino}methyl)-3,3,3-trifluoro-2-hydroxypropyl]-1-phenyl-1H-pyrazole-4-carboxamide]	< 1000 nM	≥ 40%	< 1000 nM	< 316 nM	≥ 40%	–	> 1000 nM
